Bounds are passed on as bounds.

One may read the Kd as the concentration at which binding is half-saturated.

The target of the assay is T1, Cdk2(2-298) (Homo sapiens, UniProt P24941).
T1 construct: Biotinylated N-terminal avi-tagged Cdk2(2-298) or Cdk1(1-297) was immobilized
As to the kind of experiment: Surface Plasmon Resonance (SPR) compound interaction, Biacore 8K. It counts as binding. The settings on record: single-cycle kinetics (SCK, "S"), dissociation 1800 sec, read-out: Activity rating (KD). In short, it runs like this: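 Biotinylated N-terminal avi-tagged Cdk2(2-298) captured on streptavidin chip at 2500–3000 RU in 25 mM HEPES, 150 mM NaCl, 0.05% Tween20, pH 7.5, 1% DMSO final. Eight 3-fold compound concentrations injected 120 sec at 30 μl/min, multi- or single-cycle kinetics; dissociation 180 sec (MCK) or 1800 sec (SCK).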
For `N[C@H]1CC[C@H](Nc2nccc(-c3cccnc3Sc3ccc(NS(=O)(=O)c4cccc5ccccc45)cc3F)n2)CC1` [Compound 111, N-(4-((3-(2-(((1r,4r)-4-Aminocyclohexyl)amino)pyrimidin-4-yl)pyridin-2-yl)thio)-3-fluorophenyl) naphthalene-1-sulfonamide], the equilibrium dissociation constant (Kd) lay within 11 to 100 nM.

On to `N[C@H]1CC[C@H](Nc2nccc(-c3cnccc3Oc3ccc(NS(=O)(=O)C4CCCCC4)cc3F)n2)CC1` [Compound 68, N-[4-[[3-[2-[(1r,4r)(4-Aminocyclohexyl)amino]pyrimidin-4-yl]-4-pyridyl]oxy]-3-fluorophenyl] cyclohexylsulfonamide], for which the Kd was 100 to 1000 nM.

For `N[C@H]1CC[C@H](Nc2nccc(-c3cnccc3Oc3ccc(NS(=O)(=O)c4c(F)cccc4F)cc3F)n2)CC1` [Compound 26, N-[4-[[3-[2-[(1r,4r)(4-Aminocyclohexyl)amino]pyrimidin-4-yl]-4-pyridyl]oxy]-3-fluoro-phenyl] 2,6-difluoro-benzenesulfonamide], the equilibrium dissociation constant (Kd) is not above 10 nM.

As for `CCc1ccccc1S(=O)(=O)Nc1ccc(Oc2ccncc2-c2ccnc(N[C@H]3CC[C@H](N)CC3)n2)c(F)c1` [Compound 71, N-[4-[[3-[2-(1r,4r)[(4-Aminocyclohexyl)amino]pyrimidin-4-yl]-4-pyridyl]oxy]-3-fluorophenyl] 2-ethylbenzenesulfonamide], the Kd is not above 10 nM.

Consider `N[C@H]1CC[C@H](Nc2nccc(-c3cnccc3Oc3ccc(NS(=O)(=O)c4ccc(CO)cc4F)cc3F)n2)CC1` [Compound 81], for which the dissociation constant Kd lay within 100 to 1000 nM.

With `O=S(=O)(Nc1ccc(Oc2ncncc2-c2ccnc(N[C@H]3CCCNC3)n2)c(F)c1)c1ccccc1Cl` [Compound 127, N-[3-fluoro-4-[5-[2-[[(3S)-3-piperidyl]amino]pyrimidin-4-yl]pyrimidin-4-yl]oxyphenyl] 2-chlorobenzenesulfonamide], the Kd was 11 to 100 nM.

Regarding `N[C@H]1CC[C@H](Nc2nccc(-c3cnccc3Oc3ccc(NS(=O)(=O)C4CC5CCC4C5)cc3F)n2)CC1` (stereo partly drawn) [Compound 75, N-[4-[[3-[2-(1r,4r)[(4-Aminocyclohexyl)amino]pyrimidin-4-yl]-4-pyridyl]oxy]-3-fluorophenyl] [R,S]-exo-norborn-2-ylsulfonamide], the Kd fell in the range of 100 to 1000 nM.

Take `N[C@H]1CC[C@H](Nc2nccc(-c3cnccc3Oc3ccc(NS(=O)(=O)c4ccccc4Cl)cc3F)n2)CC1` [Compound 24, N-[4-[[3-[2-(1r,4r)[(4-aminocyclohexyl)amino]pyrimidin-4-yl]-4-pyridyl]oxy]-3-fluoro-phenyl]-2-chloro-benzenesulfonamide]: the dissociation constant Kd is not above 10 nM.

With `N[C@H]1CC[C@H](Nc2nccc(-c3cnccc3Oc3ccc(NS(=O)(=O)C4CC4)c(Cl)c3)n2)CC1` [Compound 50, N-[4-[[3-[2-[(1r,4r)(4-Aminocyclohexyl)amino]pyrimidin-4-yl]-4-pyridyl]oxy]-2-chlorophenyl] cyclopropanesulfonamide], the Kd is more than 5000 nM.

As for `N[C@H]1CC[C@H](Nc2nccc(-c3cnccc3Oc3ccc(NS(=O)(=O)c4ccccc4)c(C(F)(F)F)c3)n2)CC1` [Compound 32, N-(4-((3-(2-(((1r,4r)-4-Aminocyclohexyl)amino)pyrimidin-4-yl)pyridin-4-yl)oxy)-2-(trifluoromethyl)phenyl) benzenesulfonamide], the dissociation constant Kd fell in the range of 100 to 1000 nM.

Consider `N[C@H]1CC[C@H](Nc2nccc(-c3ccncc3Oc3ccc(NS(=O)(=O)c4ccccc4Cl)cc3F)n2)CC1` [Compound 131, N-[4-(1r,4r)[[4-[2-[(4-aminocyclohexyl)amino]pyrimidin-4-yl]-3-pyridyl]oxy]-3-fluorophenyl] 2-chlorobenzenesulfonamide], for which the Kd fell in the range of 11 to 100 nM.

Regarding `N[C@H]1CC[C@H](Nc2nccc(-c3cncnc3Oc3ccc(NS(=O)(=O)c4ccccc4)cc3F)n2)CC1` [Compound 130, N-[4-[5-[2-[(1r,4r)(4-aminocyclohexyl)amino]pyrimidin-4-yl]pyrimidin-4-yl]oxy-3-fluoro-phenyl] benzenesulfonamide], the equilibrium dissociation constant (Kd) lay within 1000 to 5000 nM.

For the molecule `N[C@H]1CC[C@H](Nc2nccc(-c3cnccc3Oc3ccc(NS(=O)(=O)c4ccccc4)c(Cl)c3F)n2)CC1` [Compound 52, N-[4-[[3-[2-[(1r,4r)(4-Aminocyclohexyl)amino]pyrimidin-4-yl]-4-pyridyl]oxy]-2-chloro-3-fluorophenyl] benzenesulfonamide], the Kd was 11 to 100 nM.

As to `COCCN1CC(Nc2nccc(-c3cnccc3Oc3ccc(NS(=O)(=O)c4ccccc4Cl)cc3F)n2)C1` [Compound 105], the Kd was in the range of 11 to 100 nM.

With `N[C@H]1CC[C@H](Nc2nccc(-c3ccccc3Oc3ccc(NS(=O)(=O)c4cccc5ccccc45)cc3F)n2)CC1` [Compound 4, N-[4-[2-[2-[(1r,4r)(4-Aminocyclohexyl)amino]pyrimidin-4-yl]phenoxy]-3-fluorophenyl] naphthalene-1-sulfonamide], the Kd lay in the range of 100 to 1000 nM.

`O=S(=O)(Nc1ccc(Oc2ccncc2-c2ccnc(NCCN3CCC3)n2)c(F)c1)c1ccccc1Cl` [Compound 94]: the Kd was in the range of 100 to 1000 nM.

Turning to `N[C@H]1CC[C@H](Nc2nccc(-c3cnccc3Oc3ccc(NS(=O)(=O)c4ccccc4I)cc3F)n2)CC1` [Compound 65, N-[4-[[3-[2-[(1r,4r)(4-Aminocyclohexyl)amino]pyrimidin-4-yl]-4-pyridyl]oxy]-3-fluorophenyl] 2-iodobenzenesulfonamide], the dissociation constant (Kd) was not above 10 nM.

As for `N#Cc1ccccc1S(=O)(=O)Nc1ccc(Oc2ccncc2-c2ccnc(N[C@H]3CC[C@H](N)CC3)n2)c(F)c1` [Compound 67, N-[4-[[3-[2-[(1r,4r)(4-Aminocyclohexyl)amino]pyrimidin-4-yl]-4-pyridyl]oxy]-3-fluorophenyl] 2-cyanobenzenesulfonamide], the dissociation constant Kd was not above 10 nM.

On to `O=S(=O)(Nc1ccc(Oc2ccncc2-c2ccnc(NCCN3CCCC3)n2)c(F)c1)c1ccccc1Cl` [Compound 90], for which the Kd was 100 to 1000 nM.

Take `N[C@H]1CC[C@H](Nc2nccc(-c3ccc(C4CCCCC4)cc3Oc3ccc(NS(=O)(=O)c4ccccc4Cl)cc3F)n2)CC1` [Compound 22, N-[4-[2-[2-[(1r,4r)(4-Aminocyclohexyl)amino]pyrimidin-4-yl]-5-cyclohexylphenoxy]-3-fluorophenyl] 2-chlorobenzenesulfonamide]: the Kd is 11 to 100 nM.

Turning to `N[C@H]1CC[C@H](Nc2nccc(-c3ncccc3Oc3ccc(NS(=O)(=O)c4ccccc4Cl)cc3F)n2)CC1` [Compound 132, N-[4-[[2-[2-(1r,4r)[(4-Aminocyclohexyl)amino]pyrimidin-4-yl]-3-pyridyl]oxy]-3-fluoro-phenyl] 2-chlorobenzenesulfonamide], the Kd is 100 to 1000 nM.

With `N[C@H]1CC[C@H](Nc2nccc(-c3cnccc3Sc3ccc(NS(=O)(=O)c4ccccc4)cc3F)n2)CC1` [Compound 117, N-[4-(1r,4r)[[3-[2-[(4-aminocyclohexyl)amino]pyrimidin-4-yl]-4-pyridyl]sulfanyl]-3-fluorophenyl] benzenesulfonamide], the equilibrium dissociation constant (Kd) lay in the range of 11 to 100 nM.

Take `N[C@H]1CC[C@H](Nc2nccc(-c3cnccc3Sc3ccc(NS(=O)(=O)c4ccccc4Cl)cc3F)n2)CC1` [Compound 116, N-[4-[[3-[2-[((1r,4r)4 aminocyclohexyl)amino]pyrimidin-4-yl]-4-pyridyl]thio]-3-fluoro-phenyl] 2-chlorobenzenesulfonamide]: the dissociation constant (Kd) was not above 10 nM.
